Usually solubility stands for the dissolved amount per volume that the medium holds. Read a high solubility as a readily soluble substance.

Data on five compounds can be found in patent US11923581B2, “Aqueous redox flow battery electrolytes with high chemical and electrochemical stability, high water solubility, low membrane permeability” (President and Fellows of Harvard College, priority 2016, dated 2024).

SMILES strings stand for the structures.

The nature of one data set: physchem. The note with it: 25 °C, thermodynamic from solid.
Data set [1] is described as follows: Cyclic voltammetry, reduction potential. The format is physicochemical.
The next data set in a line: Solubility in water. The note with it: 25° C.
For data set [2] the following is noted: cited from earlier work.

Regarding `C[N+](C)(C)CCC[n+]1ccc(-c2cc[n+](CCC[N+](C)(C)C)cc2)cc1` [Compound 1, (3-trimethylammonio)propyl viologen tetrachloride], the solubility in “physchem” (pH 7, water) stood at 2000 mM. In “physchem” (water), the solubility turned out to be 2000 mM. For the same compound, in data set [1] (pH 7), the “reduction potential vs. Ag/AgCl reference electrode” value is −0.55 V and the “reduction potential vs. RHE” value is reported as “+0.07 V”.
For the compound `C[N+](C)(C)CCC[c-]1cccc1.C[N+](C)(C)CCC[c-]1cccc1.[Cl-].[Cl-].[Fe+2]` [Compound 2, bis((3-trimethylammonio)propyl)ferrocene dichloride], in data set [1] (pH 7), the “reduction potential vs. Ag/AgCl reference electrode” value is recorded as “+0.21 V” and the “reduction potential vs. RHE” value is given as “+0.83 V”.
`C[N+](C)(C)C[c-]1cccc1.F[B-](F)(F)F.[Fe+2].c1cc[cH-]c1` [Compound 3]: the water solubility in the data set “Solubility in water” was roughly 400 mM. Moreover, the “reduction potential vs. RHE” value in data set [1] (pH 7, converted from the measured potential) is “+1.05 V”. In data set [1] (pH 7, cyclic voltammetry), the “reduction potential vs. Ag/AgCl reference electrode” value is given as “+0.43 V”.
For the compound `C[N+](C)(C)CCCNC(=O)[c-]1cccc1.[Cl-].[Fe+2].c1cc[cH-]c1` [Compound 7, N-((3-trimethylammonio)propyl) ferrocenecarboxamide chloride], in data set [1] (pH 7), the “reduction potential higher than that of 2” value was roughly 240 mV, the “reduction potential vs SHE” value is on record as “+0.63 V” and the “reduction potential vs. RHE” value is given as “+1.04 V”.
As for `C[n+]1ccc(-c2cc[n+](C)cc2)cc1` [MV dichloride, methyl viologen], in data set [2], the “solubility in water at pH 7” value is listed as 3.0 M.
